The source made the active and inactive calls. The calls are words filed in the database; no cut-off is given here.
Experiments:
Assay type in all cases: protein assay
[1] = target: T1, Alpha-1,2-mannosidase (BT_3991) (Bacteroides thetaiotaomicron) (UniProt Q8A0N0); experiment: Activity of Bacteroides thetaiotaomicron GH92 alpha-mannosidase GH92 alpha-mannosidase 3991 assessed as mannose release at 1 mM after 16 hrs by HPLC relative to untreated control after 16 hrs by HPLC
T1 sequence (whole entry): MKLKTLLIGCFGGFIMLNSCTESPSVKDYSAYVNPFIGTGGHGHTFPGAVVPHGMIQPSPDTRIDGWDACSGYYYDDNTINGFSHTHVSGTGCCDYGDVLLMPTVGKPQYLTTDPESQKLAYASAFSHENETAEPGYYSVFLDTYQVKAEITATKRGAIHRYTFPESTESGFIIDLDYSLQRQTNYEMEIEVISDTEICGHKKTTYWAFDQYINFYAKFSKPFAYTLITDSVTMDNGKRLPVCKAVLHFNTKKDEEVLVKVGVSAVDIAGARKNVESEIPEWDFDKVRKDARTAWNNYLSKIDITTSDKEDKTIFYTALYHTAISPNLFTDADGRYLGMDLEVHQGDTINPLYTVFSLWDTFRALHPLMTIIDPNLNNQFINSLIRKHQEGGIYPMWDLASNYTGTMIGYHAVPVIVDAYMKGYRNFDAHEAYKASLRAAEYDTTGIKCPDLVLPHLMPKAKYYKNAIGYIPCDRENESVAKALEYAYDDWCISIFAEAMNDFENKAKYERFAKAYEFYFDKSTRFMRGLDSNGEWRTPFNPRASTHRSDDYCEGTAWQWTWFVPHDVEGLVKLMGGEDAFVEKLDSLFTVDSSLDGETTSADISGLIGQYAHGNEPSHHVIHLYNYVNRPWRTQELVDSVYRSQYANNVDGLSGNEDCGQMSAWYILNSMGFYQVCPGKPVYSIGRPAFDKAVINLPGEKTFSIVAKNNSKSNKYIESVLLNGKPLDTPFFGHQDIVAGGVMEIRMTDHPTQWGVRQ

[2] = target: T2, Glycoside hydrolase family 92 (BT_3962) (Bacteroides thetaiotaomicron) (UniProt Q8A0Q9); experiment: Activity of Bacteroides thetaiotaomicron GH92 alpha-mannosidase GH92 alpha-mannosidase 3962 assessed as mannose release at 1 mM after 16 hrs by HPLC relative to untreated control after 16 hrs by HPLC
T2 sequence (whole entry): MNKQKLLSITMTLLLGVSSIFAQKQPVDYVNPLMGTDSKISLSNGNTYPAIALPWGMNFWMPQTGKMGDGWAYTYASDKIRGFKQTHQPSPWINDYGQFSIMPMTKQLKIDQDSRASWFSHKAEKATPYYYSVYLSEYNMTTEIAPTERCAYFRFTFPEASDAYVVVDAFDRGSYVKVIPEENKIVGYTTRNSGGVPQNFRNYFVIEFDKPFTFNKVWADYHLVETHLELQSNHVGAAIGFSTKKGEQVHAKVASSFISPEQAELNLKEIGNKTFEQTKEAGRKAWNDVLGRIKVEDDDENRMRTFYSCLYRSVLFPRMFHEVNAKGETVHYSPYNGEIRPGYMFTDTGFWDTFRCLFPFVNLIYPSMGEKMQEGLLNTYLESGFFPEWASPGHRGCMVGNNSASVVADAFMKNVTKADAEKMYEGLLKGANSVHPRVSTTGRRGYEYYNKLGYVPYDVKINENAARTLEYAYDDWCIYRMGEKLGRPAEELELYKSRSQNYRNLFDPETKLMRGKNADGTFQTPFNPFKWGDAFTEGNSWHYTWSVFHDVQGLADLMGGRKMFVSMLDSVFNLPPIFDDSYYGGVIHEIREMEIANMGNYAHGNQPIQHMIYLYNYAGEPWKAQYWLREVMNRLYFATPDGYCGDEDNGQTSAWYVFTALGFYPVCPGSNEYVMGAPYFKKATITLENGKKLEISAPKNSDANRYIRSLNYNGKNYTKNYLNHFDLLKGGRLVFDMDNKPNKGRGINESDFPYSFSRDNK

[3] = target: T3, Alpha-1,2-mannosidase family protein (BT_1032) (Bacteroides thetaiotaomicron) (UniProt Q8A8Y5); experiment: Activity of Bacteroides thetaiotaomicron GH92 alpha-mannosidase 1032 assessed as mannose release at 1 mM after 16 hrs by HPLC relative to untreated control
T3 sequence (whole entry): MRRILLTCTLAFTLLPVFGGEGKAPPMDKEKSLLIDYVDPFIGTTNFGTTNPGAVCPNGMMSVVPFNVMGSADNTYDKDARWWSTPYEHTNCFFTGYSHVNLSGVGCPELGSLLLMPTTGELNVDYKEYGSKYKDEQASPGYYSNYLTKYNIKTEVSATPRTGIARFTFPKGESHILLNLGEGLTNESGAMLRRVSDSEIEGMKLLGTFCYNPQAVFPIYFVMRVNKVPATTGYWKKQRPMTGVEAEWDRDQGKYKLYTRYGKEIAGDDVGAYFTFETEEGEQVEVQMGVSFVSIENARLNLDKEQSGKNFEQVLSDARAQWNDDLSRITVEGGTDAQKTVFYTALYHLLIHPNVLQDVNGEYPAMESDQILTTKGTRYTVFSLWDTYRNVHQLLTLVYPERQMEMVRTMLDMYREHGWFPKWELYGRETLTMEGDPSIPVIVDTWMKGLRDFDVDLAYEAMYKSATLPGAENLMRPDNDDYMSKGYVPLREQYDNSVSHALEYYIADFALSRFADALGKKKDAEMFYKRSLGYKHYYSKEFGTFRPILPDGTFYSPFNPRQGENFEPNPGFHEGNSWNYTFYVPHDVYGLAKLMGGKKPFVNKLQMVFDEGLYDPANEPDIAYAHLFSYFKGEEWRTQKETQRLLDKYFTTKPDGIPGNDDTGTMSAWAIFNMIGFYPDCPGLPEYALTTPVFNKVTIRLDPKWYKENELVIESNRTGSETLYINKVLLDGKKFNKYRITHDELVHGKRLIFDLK

| Structure (SMILES) | Activity [1] | Activity [2] | Activity [3] |
| --- | --- | --- | --- |
| OC[C@H]1O[C@H](O[C@H]2[C@@H](O)[C@H](O)[C@@H](CO)O[C@@H]2O)[C@@H](O)[C@@H](O)[C@@H]1O | 0.8% | 100% | inactive |
| OC[C@H]1O[C@H](OC[C@H]2O[C@H](O)[C@@H](O)[C@@H](O)[C@@H]2O)[C@@H](O)[C@@H](O)[C@@H]1O | 1.51% | 0.0031% | inactive |
| OC[C@H]1O[C@H](O[C@@H]2[C@H](O)[C@@H](O)O[C@H](CO)[C@H]2O)[C@@H](O)[C@@H](O)[C@@H]1O |  | inactive | inactive |
| OC[C@H]1O[C@H](O[C@H]2[C@H](O)[C@H](O)[C@@H](O)O[C@@H]2CO)[C@@H](O)[C@@H](O)[C@@H]1O | inactive | 0.042% | inactive |
